These are literature values, as cited in patent US9707259B2, “Magnetic diffusional patch” (METUAS MEDIKAL SAGLIK HIZ-METLERI DANISMANLIK IHRACAT …, priority 2011, dated 2017).

SMILES strings stand for the structures.

Series [1] deals with activated human monocytes.
Series [2] deals with cyclooxygenase (COX).
In series [3] the test system is lipooxygenase enzymes.
Series [4] concerns thromboxane and leukotriene B4 synthesis.
Series [5] concerns rheumatoid arthritis.
Where [6] appears, read: experimental animals, rheumatoid arthritis.

In the case of `CC1=CCC(O)(C(C)C)CC1` (stereo not shown) [4-terpineol], the inflammation mediators entry in series [1] is reported as “suppress”.
`CC1=CC(=O)C(C(C)C)=CC1=O` [thymoquinone]: the “effect on cyclooxygenase (COX) enzyme” value in series [2] is recorded as “blocks”. Further, the “effect on lipooxygenase enzyme” value in series [3] was “blocks”. The “synthesis of thromboxane and leukotriene B4 from eicosanoids” value in series [4] is listed as “inhibits”. Further, in series [5] (setting [6]), the “levels of pro-inflammation cytokines TNF-alpha and interleukin (IL)-1beta” value is “reduction”; the “severity of the disease” value was “decreases”. Moreover, in series [5] (experimental studies), the “induced arthritis with the aid of collagen” value is recorded as “able to suppress”.
